Test results published in patent US7074789B2, “Kinase inhibitors” (Amgen Inc., priority 1999, dated 2006).

Key:
Assay type in all cases: biochemical
[1] = target: T1, Lck (Homo sapiens, UniProt P06239); experiment: Kinase inhibition assay (33P transfer), Lck; details: Table 3; read-out: Lck-1
T1 construct: Kinases are expressed as either kinase domains or full length constructs; made in house
Outline: (§1)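 Radiometric readout: 33P incorporated into surface-bound poly(Glu,Tyr) 4:1 or poly(Arg,Ser) 3:1 is counted by liquid scintillation after a 0.5% phosphoric acid wash. Enzymes were GST or polyHis fusions (kinase domain or full length) from E. coli or High Five insect cells.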

[2] = target: T2, Lyn (Homo sapiens, UniProt P07948); experiment: Kinase inhibition assay (33P transfer), Lyn; details: Table 6, Lyn-1 kinase inhibition class
T2 construct: Kinases are expressed as either kinase domains or full length constructs; made in house
Excerpt: (§2) The inhibitor compounds described herein are screened in the following manner. Kinases suitable for use in the following protocol to determine kinase activity of the compounds described herein include, -but are not limited to: Lck, Lyn, Src, Fyn, Syk, Zap-70, Itk, Tec, Btk, EGFR, ErbB2, Kdr, Flt-1, Flt-3, Tek, c-Met, InsR, and AKT.
(§3) Kinases are expressed as either kinase domains or full length constructs fused to glutathione S-transferase (GST) or polyHistidine tagged fusion proteins in either E. colior Baculovirus-High Five expression systems. They are purified to near homogeneity by affinity chromatography essentially as previously described (Lehr et al., 1996; Gish et al., 1995). In some instances, kinases are co-expressed or mixed with purified or partially purified regulatory polypeptides prior to measurement of activity.
(§4) Kinase activity and inhibition are measured essentially by established protocols (Braunwalder et al., 1996). Briefly, The transfer of ^33PO4 from ATP to the synthetic substrates poly(Glu, Tyr) 4:1 or poly(Arg, Ser) 3:1 attached to the bioactive surface of microtiter plates serves as the basis to evaluate enzyme activity. After an incubation period, the amount of phosphate transferred is measured by first washing the plate with 0.5% phosphoric acid, adding liquid scintillant, and then counting in a liquid scintillation detector. The IC50 is determined by the concentration of compound that causes a 50% reduction in the amount of […] incorporated onto the substrate bound to the plate.

[3] = target: T3, Src (Homo sapiens, UniProt P12931); experiment: Kinase inhibition assay (33P transfer), Src; details: Table 6, Src-1 kinase inhibition class
T3 construct: Kinases are expressed as either kinase domains or full length constructs; made in house
Excerpt: as §2, §3, §4

[4] = target: T4, Fyn (Homo sapiens, UniProt P06241); experiment: Kinase inhibition assay (33P transfer), Fyn; details: read-out: Fyn-1
T4 construct: Kinases are expressed as either kinase domains or full length constructs; made in house
Excerpt: as §2, §3, §4

[5] = target: T5, Zap-70 (Homo sapiens, UniProt P43403); experiment: Kinase inhibition assay (33P transfer), Zap-70; details: Table 3; read-out: Zap-1
T5 construct: Kinases are expressed as either kinase domains or full length constructs; made in house
T5 sequence (P43403 1-619): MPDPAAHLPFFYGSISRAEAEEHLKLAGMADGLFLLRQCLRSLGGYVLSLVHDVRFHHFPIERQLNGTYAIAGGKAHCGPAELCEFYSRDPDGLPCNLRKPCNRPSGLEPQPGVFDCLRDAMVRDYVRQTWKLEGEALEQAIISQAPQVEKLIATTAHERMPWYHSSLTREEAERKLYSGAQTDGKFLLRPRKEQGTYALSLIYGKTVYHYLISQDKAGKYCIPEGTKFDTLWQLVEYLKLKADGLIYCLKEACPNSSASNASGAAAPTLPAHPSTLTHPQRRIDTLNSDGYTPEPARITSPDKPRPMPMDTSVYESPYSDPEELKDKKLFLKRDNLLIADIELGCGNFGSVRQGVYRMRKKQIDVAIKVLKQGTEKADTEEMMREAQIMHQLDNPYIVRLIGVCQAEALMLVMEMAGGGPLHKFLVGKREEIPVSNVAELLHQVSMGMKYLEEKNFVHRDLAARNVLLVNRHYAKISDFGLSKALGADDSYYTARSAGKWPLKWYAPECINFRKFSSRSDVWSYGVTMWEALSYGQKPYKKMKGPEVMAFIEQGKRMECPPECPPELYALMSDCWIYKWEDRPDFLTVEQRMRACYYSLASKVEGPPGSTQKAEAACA
Outline: as §1

[6] = target: T6, Itk (Homo sapiens, UniProt Q08881); experiment: Kinase inhibition assay (33P transfer), Itk; details: Table 3; read-out: Itk-1
T6 construct: Kinases are expressed as either kinase domains or full length constructs; made in house
T6 sequence (Q08881 1-620): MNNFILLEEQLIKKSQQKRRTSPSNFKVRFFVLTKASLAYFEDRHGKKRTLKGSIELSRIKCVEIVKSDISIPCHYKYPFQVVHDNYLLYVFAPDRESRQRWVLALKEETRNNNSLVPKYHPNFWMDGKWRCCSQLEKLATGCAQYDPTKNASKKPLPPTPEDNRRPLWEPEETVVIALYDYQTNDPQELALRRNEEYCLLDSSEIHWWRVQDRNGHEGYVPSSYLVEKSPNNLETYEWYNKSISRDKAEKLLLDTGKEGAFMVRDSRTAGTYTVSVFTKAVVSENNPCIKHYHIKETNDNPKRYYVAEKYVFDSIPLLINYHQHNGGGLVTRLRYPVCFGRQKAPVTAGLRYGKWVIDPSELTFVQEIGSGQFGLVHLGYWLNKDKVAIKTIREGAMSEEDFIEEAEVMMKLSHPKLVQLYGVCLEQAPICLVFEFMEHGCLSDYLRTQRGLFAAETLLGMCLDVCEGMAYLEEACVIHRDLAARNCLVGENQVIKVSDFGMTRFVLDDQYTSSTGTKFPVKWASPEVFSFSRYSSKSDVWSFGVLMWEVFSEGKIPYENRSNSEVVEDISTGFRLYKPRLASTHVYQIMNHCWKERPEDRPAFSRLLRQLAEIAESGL
Outline: (§5)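 GST/His-fusion kinases, E. coli or High Five expressed, affinity purified; 33P-ATP, plate-coated poly(Glu,Tyr) 4:1 or poly(Arg,Ser) 3:1; 0.5% H3PO4 wash, scintillant, LSC.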

[7] = target: T7, EGFR (Homo sapiens, UniProt P00533); experiment: Kinase inhibition assay (33P transfer), EGFR; details: Table 2, kinase inhibition class; read-out: EGFR-1
T7 construct: Kinases are expressed as either kinase domains or full length constructs; made in house
Outline: as §5

[8] = target: T8, Kdr (Homo sapiens, UniProt P35968); experiment: Kinase inhibition assay (33P transfer), Kdr; details: Table 3; read-out: KDR-1
T8 construct: Kinases are expressed as either kinase domains or full length constructs; made in house
T8 sequence (P35968 20-1356, species assumed): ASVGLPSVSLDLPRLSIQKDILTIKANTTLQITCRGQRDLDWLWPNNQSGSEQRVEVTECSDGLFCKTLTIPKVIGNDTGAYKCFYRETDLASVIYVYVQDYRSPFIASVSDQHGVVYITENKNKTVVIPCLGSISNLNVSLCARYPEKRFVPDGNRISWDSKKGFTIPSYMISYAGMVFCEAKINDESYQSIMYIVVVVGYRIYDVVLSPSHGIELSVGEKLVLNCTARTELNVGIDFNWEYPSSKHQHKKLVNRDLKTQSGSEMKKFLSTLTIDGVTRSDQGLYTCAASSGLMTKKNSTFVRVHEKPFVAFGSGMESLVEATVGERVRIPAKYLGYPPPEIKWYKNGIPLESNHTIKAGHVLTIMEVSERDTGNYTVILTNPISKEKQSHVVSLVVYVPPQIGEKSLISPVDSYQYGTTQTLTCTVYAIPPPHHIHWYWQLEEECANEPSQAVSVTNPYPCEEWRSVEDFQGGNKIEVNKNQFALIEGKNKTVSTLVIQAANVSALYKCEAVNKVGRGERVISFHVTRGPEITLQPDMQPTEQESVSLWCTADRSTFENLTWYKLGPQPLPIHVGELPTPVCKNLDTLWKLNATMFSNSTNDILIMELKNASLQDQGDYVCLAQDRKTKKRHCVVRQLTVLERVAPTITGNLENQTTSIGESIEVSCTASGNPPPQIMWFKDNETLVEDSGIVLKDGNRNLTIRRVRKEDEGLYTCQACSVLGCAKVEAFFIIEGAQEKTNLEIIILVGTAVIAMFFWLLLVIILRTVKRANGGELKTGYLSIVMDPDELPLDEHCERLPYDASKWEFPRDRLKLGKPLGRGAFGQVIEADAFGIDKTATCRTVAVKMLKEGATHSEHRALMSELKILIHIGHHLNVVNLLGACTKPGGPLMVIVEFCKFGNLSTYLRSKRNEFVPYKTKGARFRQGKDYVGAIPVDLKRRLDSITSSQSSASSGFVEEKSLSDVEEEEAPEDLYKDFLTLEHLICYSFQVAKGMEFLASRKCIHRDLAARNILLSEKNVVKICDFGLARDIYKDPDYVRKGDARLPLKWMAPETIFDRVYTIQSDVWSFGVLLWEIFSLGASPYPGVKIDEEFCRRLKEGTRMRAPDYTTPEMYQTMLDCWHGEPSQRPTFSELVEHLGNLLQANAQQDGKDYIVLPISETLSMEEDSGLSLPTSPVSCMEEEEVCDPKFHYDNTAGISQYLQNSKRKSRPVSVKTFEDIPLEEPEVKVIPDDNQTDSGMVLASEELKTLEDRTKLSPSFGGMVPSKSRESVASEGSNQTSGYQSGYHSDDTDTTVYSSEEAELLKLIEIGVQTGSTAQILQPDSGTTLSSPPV
Outline: as §1

[9] = target: T9, Flt-1 (Homo sapiens, UniProt P17948); experiment: Kinase inhibition assay (33P transfer), Flt-1
T9 construct: Kinases are expressed as either kinase domains or full length constructs; made in house
T9 sequence (P17948 27-1338, species assumed): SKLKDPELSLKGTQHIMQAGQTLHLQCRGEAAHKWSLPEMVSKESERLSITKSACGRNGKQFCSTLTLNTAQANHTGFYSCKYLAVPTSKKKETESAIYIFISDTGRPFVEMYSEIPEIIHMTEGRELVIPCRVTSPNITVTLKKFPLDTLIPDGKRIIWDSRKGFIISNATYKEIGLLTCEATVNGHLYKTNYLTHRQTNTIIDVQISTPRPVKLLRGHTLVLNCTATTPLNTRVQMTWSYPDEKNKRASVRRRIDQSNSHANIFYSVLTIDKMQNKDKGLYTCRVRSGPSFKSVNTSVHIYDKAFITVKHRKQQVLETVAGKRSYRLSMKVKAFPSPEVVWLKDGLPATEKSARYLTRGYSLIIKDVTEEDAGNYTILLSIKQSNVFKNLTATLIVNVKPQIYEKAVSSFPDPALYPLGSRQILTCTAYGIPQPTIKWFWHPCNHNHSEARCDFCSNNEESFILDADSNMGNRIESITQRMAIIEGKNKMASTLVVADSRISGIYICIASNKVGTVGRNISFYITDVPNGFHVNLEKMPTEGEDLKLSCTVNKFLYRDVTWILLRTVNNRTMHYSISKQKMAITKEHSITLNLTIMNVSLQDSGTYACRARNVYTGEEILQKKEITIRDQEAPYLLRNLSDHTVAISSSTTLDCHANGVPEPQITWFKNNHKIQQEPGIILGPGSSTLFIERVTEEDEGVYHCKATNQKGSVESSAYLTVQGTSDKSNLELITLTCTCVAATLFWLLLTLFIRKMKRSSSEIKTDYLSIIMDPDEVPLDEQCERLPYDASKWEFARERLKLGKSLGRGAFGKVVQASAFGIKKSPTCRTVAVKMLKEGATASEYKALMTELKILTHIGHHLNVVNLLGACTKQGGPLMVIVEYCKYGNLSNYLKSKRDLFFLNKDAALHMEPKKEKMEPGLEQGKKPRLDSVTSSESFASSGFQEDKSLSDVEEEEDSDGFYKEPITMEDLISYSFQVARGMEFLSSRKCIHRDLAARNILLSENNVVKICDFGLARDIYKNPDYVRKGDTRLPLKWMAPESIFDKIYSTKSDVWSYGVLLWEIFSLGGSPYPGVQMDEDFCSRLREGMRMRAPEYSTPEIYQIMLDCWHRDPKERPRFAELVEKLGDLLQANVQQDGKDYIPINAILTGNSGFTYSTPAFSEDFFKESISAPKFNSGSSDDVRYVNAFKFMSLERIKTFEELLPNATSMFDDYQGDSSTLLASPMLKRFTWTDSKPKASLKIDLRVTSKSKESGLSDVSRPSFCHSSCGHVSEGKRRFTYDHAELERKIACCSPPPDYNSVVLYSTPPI
Excerpt: as §2, §3, §4

[10] = target: T10, Tek (Homo sapiens, UniProt Q02763); experiment: Kinase inhibition assay (33P transfer), Tek; details: read-out: Tek-1
T10 construct: Kinases are expressed as either kinase domains or full length constructs; made in house
Outline: as §5

[11] = target: T11, c-Met (Homo sapiens, UniProt P08581); experiment: Kinase inhibition assay (33P transfer), c-Met; details: Table 2, kinase inhibition class; read-out: Met-1
T11 construct: Kinases are expressed as either kinase domains or full length constructs; made in house
Outline: as §5

[12] = target: T12, AKT (Homo sapiens, UniProt Q9Y243); experiment: Kinase inhibition assay (33P transfer), AKT; details: Table 2, kinase inhibition class; read-out: AKT3-1
T12 construct: Kinases are expressed as either kinase domains or full length constructs; made in house
T12 sequence (Q9Y243 whole entry, the tested form may be a part): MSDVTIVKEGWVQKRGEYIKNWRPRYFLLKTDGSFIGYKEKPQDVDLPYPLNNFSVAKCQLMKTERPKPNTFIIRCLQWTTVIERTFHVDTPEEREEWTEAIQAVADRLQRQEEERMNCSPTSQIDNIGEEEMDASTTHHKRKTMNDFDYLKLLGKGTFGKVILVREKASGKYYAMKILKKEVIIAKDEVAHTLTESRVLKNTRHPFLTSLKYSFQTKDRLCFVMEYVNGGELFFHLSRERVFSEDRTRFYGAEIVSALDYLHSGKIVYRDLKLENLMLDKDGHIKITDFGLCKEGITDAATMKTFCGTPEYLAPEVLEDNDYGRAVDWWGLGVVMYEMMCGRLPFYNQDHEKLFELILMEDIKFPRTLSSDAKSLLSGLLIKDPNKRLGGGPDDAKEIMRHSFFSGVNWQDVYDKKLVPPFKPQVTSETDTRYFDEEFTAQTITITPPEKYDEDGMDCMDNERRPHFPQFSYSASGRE
Outline: as §1

[13] = target: T13, PDGFRB (Homo sapiens, UniProt P09619); experiment: Kinase inhibition assay (33P transfer), PDGFRB; details: read-out: PDGFRB-1
T13 construct: Kinases are expressed as either kinase domains or full length constructs; made in house

[14] = target: T14, Hck-1 (Homo sapiens, UniProt P08631); experiment: Kinase inhibition assay (33P transfer), Hck; details: Table 6, Hck-1 kinase inhibition class
T14 construct: Kinases are expressed as either kinase domains or full length constructs; made in house

[15] = target: T15, ErbB4 (Homo sapiens, UniProt Q15303); experiment: Kinase inhibition assay (33P transfer), ErbB4; details: read-out: ErbB4-1
T15 construct: Kinases are expressed as either kinase domains or full length constructs; made in house
T15 sequence (Q15303 26-1308, species assumed): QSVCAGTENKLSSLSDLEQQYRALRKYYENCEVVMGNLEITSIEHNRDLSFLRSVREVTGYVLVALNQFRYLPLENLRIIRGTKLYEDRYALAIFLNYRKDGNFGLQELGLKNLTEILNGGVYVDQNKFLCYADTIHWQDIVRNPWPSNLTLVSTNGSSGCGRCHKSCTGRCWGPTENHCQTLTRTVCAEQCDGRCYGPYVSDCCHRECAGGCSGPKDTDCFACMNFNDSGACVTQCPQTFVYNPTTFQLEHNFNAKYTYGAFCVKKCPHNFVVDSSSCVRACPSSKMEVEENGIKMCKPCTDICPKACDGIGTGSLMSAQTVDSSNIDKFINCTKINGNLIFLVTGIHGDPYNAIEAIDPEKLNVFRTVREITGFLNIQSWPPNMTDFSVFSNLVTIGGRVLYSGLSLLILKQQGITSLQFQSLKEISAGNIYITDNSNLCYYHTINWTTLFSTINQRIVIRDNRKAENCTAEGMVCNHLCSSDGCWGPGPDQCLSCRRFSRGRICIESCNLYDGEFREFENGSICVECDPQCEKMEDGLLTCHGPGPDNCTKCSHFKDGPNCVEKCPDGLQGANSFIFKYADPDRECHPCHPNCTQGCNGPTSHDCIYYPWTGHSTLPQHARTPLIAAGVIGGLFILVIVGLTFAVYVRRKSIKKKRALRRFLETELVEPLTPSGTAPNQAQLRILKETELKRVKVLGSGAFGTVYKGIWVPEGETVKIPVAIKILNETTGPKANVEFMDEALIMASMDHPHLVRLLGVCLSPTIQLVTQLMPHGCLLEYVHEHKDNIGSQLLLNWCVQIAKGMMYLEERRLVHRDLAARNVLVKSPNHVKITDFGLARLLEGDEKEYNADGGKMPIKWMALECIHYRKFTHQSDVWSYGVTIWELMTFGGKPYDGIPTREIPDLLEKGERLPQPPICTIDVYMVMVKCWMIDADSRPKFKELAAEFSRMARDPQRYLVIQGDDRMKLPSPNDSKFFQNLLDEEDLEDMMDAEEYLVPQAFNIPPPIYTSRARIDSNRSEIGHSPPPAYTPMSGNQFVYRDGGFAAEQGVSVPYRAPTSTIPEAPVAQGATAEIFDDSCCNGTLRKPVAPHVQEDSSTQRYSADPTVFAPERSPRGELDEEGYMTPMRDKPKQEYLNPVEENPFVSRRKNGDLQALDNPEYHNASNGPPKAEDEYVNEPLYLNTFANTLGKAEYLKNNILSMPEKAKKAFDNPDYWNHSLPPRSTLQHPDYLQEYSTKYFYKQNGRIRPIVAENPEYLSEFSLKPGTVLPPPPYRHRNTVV

[16] = target: T16, FGFR1 (Homo sapiens, UniProt P11362); experiment: Kinase inhibition assay (33P transfer), FGFR1; details: read-out: FGFR1-1
T16 construct: Kinases are expressed as either kinase domains or full length constructs; made in house

T1 sequence (P06239 whole entry, species assumed, the tested form may be a part): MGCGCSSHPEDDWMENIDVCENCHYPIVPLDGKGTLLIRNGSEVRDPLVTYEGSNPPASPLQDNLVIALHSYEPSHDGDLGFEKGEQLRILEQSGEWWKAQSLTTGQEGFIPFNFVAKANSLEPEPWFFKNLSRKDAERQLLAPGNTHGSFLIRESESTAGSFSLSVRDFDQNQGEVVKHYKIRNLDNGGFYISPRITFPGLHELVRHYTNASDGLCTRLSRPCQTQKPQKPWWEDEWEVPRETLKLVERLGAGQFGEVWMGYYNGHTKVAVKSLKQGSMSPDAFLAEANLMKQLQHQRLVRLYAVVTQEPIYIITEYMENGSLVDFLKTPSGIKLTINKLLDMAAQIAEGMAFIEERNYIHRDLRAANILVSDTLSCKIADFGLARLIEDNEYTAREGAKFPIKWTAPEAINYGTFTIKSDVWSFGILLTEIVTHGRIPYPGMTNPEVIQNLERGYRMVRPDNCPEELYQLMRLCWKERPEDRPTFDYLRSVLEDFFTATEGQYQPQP

SMILES | IC50 [1] | IC50 [2] | IC50 [3] | IC50 [4] | IC50 [5] | IC50 [6] | IC50 [7] | IC50 [8] | IC50 [9] | IC50 [10] | IC50 [11] | IC50 [12] | IC50 [13] | IC50 [14] | IC50 [15] | IC50 [16]
COc1ccc(Nc2nc3ccccc3n2-c2ncnc(Nc3cc(OC)c(OC)c(OC)c3)n2)cc1 [Compound 397] | < 0.801 µM | > 9.01 µM | > 9.01 µM | > 9.01 µM | > 9.01 µM | > 9.01 µM | > 9.01 µM | < 0.801 µM | < 0.801 µM | > 9.01 µM | > 9.01 µM | > 9.01 µM | < 0.801 µM | > 9.01 µM | > 9.01 µM | < 0.801 µM
NCc1ccc(Nc2ncnc(Nc3cc(-c4ccco4)n[nH]3)n2)cc1 [Compound 437] | 1.15 to 6.89 µM | 1.15 to 6.89 µM | 1.15 to 6.89 µM | 1.15 to 6.89 µM | > 12.9 µM | 1.15 to 6.89 µM | 1.15 to 6.89 µM | < 1.15 µM | 1.15 to 6.89 µM | 6.89 to 10 µM | 1.15 to 6.89 µM | > 12.9 µM | < 1.15 µM | 10 to 12.9 µM | 1.15 to 6.89 µM | < 1.15 µM
COc1cc(Nc2ncnc(-n3c(Nc4cc(C)n[nH]4)nc4ccccc43)n2)cc(OC)c1OC [Compound 401] | 0.845 to 5.07 µM | 0.845 to 5.07 µM | 0.845 to 5.07 µM | 0.845 to 5.07 µM | 0.845 to 5.07 µM | < 0.845 µM | 0.845 to 5.07 µM | < 0.845 µM | < 0.845 µM | 0.845 to 5.07 µM | 0.845 to 5.07 µM | > 9.5 µM | < 0.845 µM | 0.845 to 5.07 µM | 0.845 to 5.07 µM | < 0.845 µM
COc1cc(Nc2ncnc(-n3c(NCc4ccncc4)nc4ccccc43)n2)cc(OC)c1OC [Compound 413] | > 9.29 µM | 0.826 to 4.95 µM | 0.826 to 4.95 µM | 0.826 to 4.95 µM | > 9.29 µM | > 9.29 µM | > 9.29 µM | < 0.826 µM | 0.826 to 4.95 µM | > 9.29 µM | > 9.29 µM | > 9.29 µM | < 0.826 µM | > 9.29 µM | > 9.29 µM | < 0.826 µM
COc1cc(Nc2ncnc(-n3cc(CCO)c4ccccc43)n2)cc(OC)c1OC [Compound 463] | > 10.7 µM | 0.949 to 5.69 µM | 0.949 to 5.69 µM | < 0.949 µM | > 10.7 µM | > 10.7 µM | > 10.7 µM | < 0.949 µM | < 0.949 µM | > 10.7 µM | > 10.7 µM | > 10.7 µM | < 0.949 µM | > 10.7 µM | > 10.7 µM | < 0.949 µM
